Data on three compounds can be found in article PMC6627331, “Identification of Small Molecule Inhibitors of Staphylococcus aureus RnpA” (Antibiotics, 2019).

Values after ≈ are worked out from the molar mass of the structure shown. Like-named read-outs stand apart in the source and are kept apart here.

One may read the MIC as the smallest concentration in the dilution series that meets the test's criterion for growth inhibition. A word on the IC50: it is the concentration needed to halve the response being measured.

One data set concerns S. aureus UAMS-1. Description: Minimum inhibitory concentration (MIC) testing. Type of data set: cell-based, Staphylococcus aureus. How it is done: Minimum inhibitory concentration (MIC) testing was performed using to Clinical & Laboratory Standards Institute (CLSI) guidelines. Accordingly, individual wells of a 96-well microtiter plate were inoculated with 10^4 colony forming units (CFU) of S. aureus UAMS-1 containing two-fold increasing concentrations (0 to 256 μg·mL^−1) of the indicated antibiotic or putative RnpA inhibitor compound, and incubated at 37 °C for 16 h in MHB. The MIC was defined as the lowest concentration of compound in which there was no visible bacterial growth in the well.

In data set [1] the test system is norA mRNA in S. aureus UAMS-1 cells. Description: Cellular norA mRNA turnover (qRT-PCR after rifampin arrest). Type of data set: cell-based, Staphylococcus aureus. The settings on record: 0.5× MIC for 30 min, 5 min post-transcriptional arrest; for norA mRNA degradation: mock 99%. How it is done: S. aureus mRNA half-life determinations were performed as previously described. […] Rifampin (Sigma-Aldrich) was added to the culture at a final concentration of 200 μg·mL^−1 to inhibit de novo transcript synthesis. Half of the culture was immediately removed and combined with an equal volume of ice cold acetone:ethanol (1:1 v/v). The remaining culture was returned to the shaking 37 °C incubator for an additional 5 min and then subsequently combined with an equal volume of ice cold acetone:ethanol (1:1 v/v) and stored at −80 °C until processing, as described below.
For total bacterial RNA isolation, cell suspensions were thawed on ice, centrifuged at 3000 rpm for 10 min at 4 °C, the resulting cell pellets were resuspended in ice-cold TE buffer (10 mM Tris-HCl, pH 8.0, 1 mM EDTA), and transferred into a FastPrep bead beater tube containing 0.1 mm silica spheres (MP Biomedicals; Santa Ana, CA, USA). Mixtures were homogenized at 5 m·s^−1 for 20 s, rested on ice for 5 min, and then homogenized again at 4.5 m·s^−1 in a FastPrep-24 instrument. Cellular debris were collected by centrifugation at 13,000 rpm for 15 min at 4 °C, whereas bacterial RNA was isolated from the supernatant using Qiagen RNeasy Mini Kits and miRNeasy Mini Kits were used to isolate total bacterial RNA, following the manufacturer’s instructions. RNA quantity and quality were measured using a NanoDrop 2000 spectrophotometer (ThermoFisher Scientific). For qRT-PCR, 1 μg of total bacterial RNA was treated with 3 units of DNase I (Ambion; Carlsbad, CA, USA) for 1 h at 37 °C to remove any DNA contaminants. RNA cleanup was performed using the Qiagen RNeasy Mini Kit. Subsequently, the BioRad iScript cDNA Synthesis Kit (Hercules, CA, USA) was used to convert 200 ng of RNA into cDNA, which was amplified using the BioRad iQ SYBR Green Supermix per the manufacturer’s instructions and fluorescence was read on the Biorad CFX 96 Connect machine. Transcript levels were compared to the internal control 16S rRNA (ΔΔCt method), and plotted as a fold change compared to control. The following primer pairs were used in this study for qRT-PCR: norA forward—[…] and norA reverse-[…] CTAAG; -15 ptRNA^Tyr forward-[…] and tRNA^Tyr reverse-TGGTG […]; 16S rRNA forward-[…] and 16S rRNA reverse-[…].
On the technique in general: Real-time PCR tracks product formation cycle by cycle.

Data set [2] deals with T1, S. aureus RNase P (RnpA + rnpB) (Staphylococcus aureus, UniProt P0A0H5).
T1 construct: hexahistidine (His6) (N); made in house; host or cells: E. coli BL21 (DE3), plasmid pEXP5-nt
T1 sequence (P0A0H5 1-117): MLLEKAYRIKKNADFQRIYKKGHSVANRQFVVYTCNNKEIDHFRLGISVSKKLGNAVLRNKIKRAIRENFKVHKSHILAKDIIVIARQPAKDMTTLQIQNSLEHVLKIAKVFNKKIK
Nature of the data set: RnpA-dependent RNase P in vitro ptRNA^Tyr processing assay. Type of data set: biochemical. To be noted: in vitro ptRNA^Tyr processing. How it is done: S. aureus RNase P activity assays were performed according to conditions described previously. Briefly, ptRNA^Tyr and rnpB RNA species were first denatured by heating to 95 °C for 5 min then slow cooled to room temperature. RNase P was reconstituted by mixing an equal molar ratio of rnpB and RnpA for 15 min at 37 °C. Precursor tRNA processing inhibition reactions were performed by mixing 1.25 pmol of reconstituted RNase P (RnpA + rnpB) with an equal volume of 2× low salt buffer (50 mM Tris-HCl pH 8.0, 5 mM MgCl2) in the presence of DMSO (negative control) or the indicated compound (≤500 µM) and incubated for 5 min at 37 °C. 5 pmol ptRNA^Tyr was added and the mixture was incubated at 37 °C 15 min. Reactions were stopped by adding 2× RNA loading dye and heating at 65 °C for 10 min. Each sample was electrophoresed in a 7 M urea/8% polyacrylamide gel then stained with ethidium bromide. The Biorad EZ Gel Doc imaging system was used to visualize the RNA and relative abundance of the mature tRNA^Tyr band (% processing) in the negative control or in samples containing the indicated compounds and analyzed using Biorad Image Lab densitometry software. The inhibitory activity of the indicated compounds were calculated as a % inhibition using the following equation: […].
To assess IC50, % RNase P processing inhibition was plotted against compound concentration and a linear best fit equation was generated to calculate the IC50.

Another data set concerns HepG2 cells. Nature of the data set: MTT human cell cytotoxicity testing. Type of data set: cell-based. The settings on record: SAR figures; 4× MIC exposure for 24 h. As to the method: Human HepG2 hepatocytes were seeded in individual wells of a 96-well cell-culture treated microtiter plate at a concentration of 1 × 10^5 cells per well and incubated in Dulbecco’s Modified Eagle Medium (DMEM) supplemented with 10% fetal bovine serum at 37 °C with 5% carbon dioxide overnight. Cells were then treated with DMSO (negative control) or the indicated agent for 24 h. MTT Cell Proliferation Assay Kits were used to assess viability according to the manufacturer’s recommendations (American Type Culture Collection; Manassas, VA, USA).

The target in the next data set is T2, S. aureus RnpA (Staphylococcus aureus, UniProt P0A0H5).
T2 construct: hexahistidine (His6) (N); made in house; host or cells: E. coli BL21 (DE3), plasmid pEXP5-nt
T2 sequence (P0A0H5 1-117): T1 sequence (P0A0H5 1-117)
Nature of the data set: RnpA-mediated in vitro spa mRNA degradation assay. Type of data set: biochemical. As to the method: RnpA-mediated RNA degradation assays were performed as previously described. Briefly, 1 pmol of spa mRNA was incubated with 5 pmol RnpA at 37 °C for 30 min in reaction buffer (50 mM Tris-HCl pH 8.0, 2 mM NaCl, 2 mM MgCl2) in the absence or presence of the indicated compound (≤500 µM). The inhibitory effects of the test compounds were calculated using Biorad ImageLab densitometry software to measure the signal intensity of the spa band in the negative control (spa alone), positive control (RnpA + spa + DMSO), and experimental samples (RnpA + spa + test compound) separated on a 1.2% formaldehyde-agarose gel. Background signal from the positive control sample sometimes resulted due to incomplete degradation of transcripts. Thus, the signal intensity of the positive control was taken into account when calculating the percent inhibition. The raw signals from the positive (+RnpA) and negative (-RnpA) controls were converted into percentage, by normalizing the positive control (+RnpA) signal to 0% RnpA inhibition and the negative control (-RnpA) to 100% RnpA inhibition. Similarly, the raw signals from the test compounds were reported as percent RnpA inhibition using the following equation: [(experimental−positive control)/(negative control−positive control)] × 100. […] To assess IC50, % RnpA degradation inhibition was plotted against compound concentration; a linear best fit equation was generated and utilized to calculate the IC50.

The subject of data set [3] is ptRNA^Tyr levels in S. aureus UAMS-1 cells. Nature of the data set: Cellular ptRNA^Tyr accumulation (qRT-PCR). Type of data set: cell-based, Staphylococcus aureus. The settings on record: 1× MIC; 30 min or 1 h. As to the method:
ptRNA^Tyr cellular pools were measured, as previously described. […] The culture was immediately removed, combined with an equal volume of ice cold acetone:ethanol (1:1 v/v) and stored at −80 °C until processing, as described below.
For total bacterial RNA isolation, cell suspensions were thawed on ice, centrifuged at 3000 rpm for 10 min at 4 °C, the resulting cell pellets were resuspended in ice-cold TE buffer (10 mM Tris-HCl, pH 8.0, 1 mM EDTA), and transferred into a FastPrep bead beater tube containing 0.1 mm silica spheres (MP Biomedicals; Santa Ana, CA, USA). Mixtures were homogenized at 5 m·s^−1 for 20 s, rested on ice for 5 min, and then homogenized again at 4.5 m·s^−1 in a FastPrep-24 instrument. Cellular debris were collected by centrifugation at 13,000 rpm for 15 min at 4 °C, whereas bacterial RNA was isolated from the supernatant using Qiagen RNeasy Mini Kits and miRNeasy Mini Kits were used to isolate total bacterial RNA, following the manufacturer’s instructions. RNA quantity and quality were measured using a NanoDrop 2000 spectrophotometer (ThermoFisher Scientific). […] Subsequently, the BioRad iScript cDNA Synthesis Kit (Hercules, CA, USA) was used to convert 200 ng of RNA into cDNA, which was amplified using the BioRad iQ SYBR Green Supermix per the manufacturer’s instructions and fluorescence was read on the Biorad CFX 96 Connect machine. […]

Data set [4] deals with S. aureus RN4220 pML100::rnpA-KD. Description: Cellular RnpA depletion hypersusceptibility growth curve. The settings on record: […] MIC JC2 or 0.5× MIC RNPA2000. Type of data set: cell-based, Staphylococcus aureus. How it is done:
100 μL of each culture was transferred to a 96 well flat bottom plate in duplicate and growth monitored by OD600 reading every 30 min over 8 h at 37 °C. Hypersusceptibility growth curves were averaged from two biological replicates in technical duplicate.

[5] abbreviates: Staphylococcus aureus, UAMS1, SAR figures, S. aureus UAMS-1, read-out: MIC.

As for `CCC1CCCCN1C(=O)Nc1cc(Cl)cc(Cl)c1` (stereo not shown) [JC3], the MIC is 1 µg/mL (≈ 3.32 µM) in the data set on S. aureus UAMS-1 (S. aureus UAMS-1, 16 h in MHB, listed as 9044688); 1 µg/mL in the data set on S. aureus UAMS-1 (Staphylococcus aureus, UAMS1, 16 h, Table S1, mupirocin synergy screening initial hits, read-out: MIC); 1 µg/mL (≈ 3.32 µM) with S. aureus UAMS-1 (setting [5]). In addition, in data set [1], the “norA mRNA degradation” value is “did not reduce cellular norA mRNA degradation”. Also, the values for the IC50 (in data set [2] (read-out: Processing IC50); on S. aureus RnpA (read-out: Degradation IC50)) were 175 µM and 500 µM, respectively. The “MTT = % HepG2 cell survival” value in the data set on HepG2 cells came out at 57.9%. Moreover, at S. aureus RnpA, the “effect on RnpA mRNA degradation activity (in words)” value is reported as “no appreciable effect”.

Consider `CCC1CCCCN1C(=O)Nc1cccc(Cl)c1` (stereo not shown) [JC3b], for which the MIC with S. aureus UAMS-1 (setting [5]) came out at 32 µg/mL (≈ 120 µM). The “norA mRNA degradation” value in data set [1] is “did not reduce cellular norA mRNA degradation”. Also, the IC50 in data set [2] (SAR figures, read-out: pIC50 = processing IC50 (converted)) is 500 µM; in data set [2] (read-out: Processing IC50), not above 500 µM; on S. aureus RnpA (SAR figures, read-out: dIC50 = degradation IC50), 350 µM; on S. aureus RnpA (read-out: Degradation IC50) it was not above 500 µM. For the same compound, in the data set on HepG2 cells, the “MTT = % HepG2 cell survival” value was found to be 82.8%.

Consider `CC(C)c1ccc(OCC(=O)NNC(=S)NC(=O)c2ccco2)cc1` [RNPA2000, reference compound], for which the “cellular accumulation of precursor tRNA^Tyr in comparison to mock treated cells” value in data set [3] was 2.31 fold. The MIC in the data set with S. aureus UAMS-1 (S. aureus UAMS-1, 16 h in MHB) is 16 µg/mL (≈ 44.3 µM). Further, in data set [1], the “reduction of cellular norA mRNA degradation” value is listed as “approximately 54%”. Besides, the “growth of RnpA-depleted cells (RnpA-KD) versus vector cells” value in data set [4] is reported as “hypersusceptibility”.
